Assays:
MODE-K cells [1] = test: Relative transcript abundance of target genes in MODE-K cells conditioned with compounds
Description: 4-ethoxymethylene-2-phenyl-2-oxazol-5-one, (referred to as oxazolone, FIG. 1A) has been widely utilized in models of contact hypersensitivity and when applied to the mucosa has been proposed to cause colitis through its properties as a hapten (Gorbachev and Fairchild 2001). However to date there is limited evidence for hapten-specific antibody production or responses following topical oxazolone sensitization or hapten modified autologous proteins or luminal antigens identified at mucosal sites (Singleton et al. 2016, Yanaba et al. 2008, Wirtz et al. 2007). […] It was then determined whether oxazolone could affect the expression of these transcripts in the intestinal epithelium in a cell intrinsic manner by directly stimulating an immortalized intestinal epithelial cell line (IEC) derived from mouse small intestine, MODE-K, with oxazolone.
To test this, a systematic in vitro system was devised to assess transcriptional and CD1d-restricted responses in IECs in response to stimulation with dietary OxC structures, including 2,4,5-trimethyl-2,5-dihydro-1,3-oxazole (referred to as TMO, FIG. 1A) found in coffee, peanuts, meats and utilized as a food additive, which lacks the 2-phenyl ring, 5-ketone, and 4-ethoxymethylene present in oxazolone (Vitzthum et al. 1975, Stoffesima et al. 1968, Lee et al. 1981, Chang et al. 1968, Ho and Hartman 1968).

MODE-K cells [2] = test: CD1d-restricted IL-10 production in MODE-K:NKT cell hybridoma co-culture; assay type: cell-based, mouse
MODE-K cells [3] = test: Surface CD1d loaded with α-GC (L363 antibody staining) in MODE-K cells; assay type: cell-based, mouse; details: AhR siRNA
Description: In light of the decreased MTP expression observed in oxazolone treated IECs (FIG. 1B) and given that MTP loss alters the ability of CD1d to acquire exogenous antigens, such as α-GC, and CD1d elicited IL-10 responses by epithelial cells (Dougan et al. 2005, Dougan et al. 2007, Zeissig et al 2017, Sagiv et al. 2007, Brozovic et al. 2004, Olszak et al. 2014), it was investigated whether CD1d expression and lipid loading on oxazolone conditioned IECs.

C57Bl/6 mice = test: Intra-rectal administration, colonic inflammation in vivo; parameters: species or system mouse
Description: It was tested whether a dietary sourced minimal oxazole structure was sufficient to induce intestinal inflammation in vivo. […] To confirm this, the ability of oxazolone skin pre-sensitization to affect the responses to rectal challenge with TMO and vice-versa (FIG. 9D).
Next, it was tested whether B17 microcin derivatives could induce intestinal inflammation in vivo. Therefore, adequate quantities of a minimal B17 derivative (termed frag-oz, FIG. 2D) were synthesized to perform in vivo experiments and challenged animals via intra-rectal administration. […] These studies identify an oxazole containing microbial mimic that promotes CD1d-dependent intestinal inflammation independent of its classical anti-microbial activity.
These studies reveal a novel role for epithelial derived AhR signals in promoting mucosal inflammation when exposed to OxC.

recombinant IDO1 = recombinant IDO1 (Homo sapiens, UniProt P14902); test: Recombinant IDO1 conversion of L-tryptophan to formyl-kyneurenine; assay type: biochemical; details: compared to control (TMC) or vehicle
Chain of recombinant IDO1 (P14902 whole entry, species assumed): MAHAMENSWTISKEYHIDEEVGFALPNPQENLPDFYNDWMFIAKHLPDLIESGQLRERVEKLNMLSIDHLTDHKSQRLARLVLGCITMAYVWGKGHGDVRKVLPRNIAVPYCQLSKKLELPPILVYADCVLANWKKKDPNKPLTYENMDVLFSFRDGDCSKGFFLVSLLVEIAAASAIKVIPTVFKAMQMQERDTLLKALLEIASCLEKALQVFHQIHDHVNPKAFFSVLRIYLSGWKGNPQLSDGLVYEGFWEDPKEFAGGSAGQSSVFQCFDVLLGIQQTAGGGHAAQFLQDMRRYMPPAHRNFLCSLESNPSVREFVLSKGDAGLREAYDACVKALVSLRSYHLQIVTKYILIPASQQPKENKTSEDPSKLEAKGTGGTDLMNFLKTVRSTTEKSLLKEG

human IDO1(hIDO1) = biological target: T1, human IDO1(hIDO1) (Homo sapiens, UniProt P14902); test: In vitro screening assay for IDO1 enhancers; assay type: biochemical
T1 construct: made in house
T1 sequence (P14902 whole entry): as the sequence (P14902 whole entry, species assumed) above
Description: An in vitro screen for IDO1 enhancers was developed based on the following categories: Synthetic, dietary, and microbial compounds with structural similarity to oxazole template.
SDS-PAGE gel under reducing conditions showing that hIDO1 was purified to >95% purity after HiTrap HP chelating column.
HiPrep 16/60 Sephacryl S-200 HR column (GE Healthcare Life Sciences) size-exclusion chromatography in a buffer containing 10 mM HEPES buffer, 150 mM NaCl pH 7.0 of hIDO1 showing single peak and peak maximum of purified protein at 126.2 minutes.
Sizing fractions a3-a11 were checked for Heme absorbance at 402 and 280 nm. Fractions showing >2.0 Heme ratio were pooled and concentrated, and final 1.5 mg/ml concentrated protein was used for final bound heme estimation. A ratio of 2.22 at 402/280 nm confirmed heme binding to purified recombinant hIDO1 protein.

IECs = test: LC-MS of deuterated L-trp (D5-Trp) metabolites in IEC lysates; assay type: cell-based; details: within 6 hours of exposure
Description: IDO1 is a rate-limiting enzyme involved in tryptophan catabolism that generates formyl-kyneurenine which can be further metabolized into a variety of AhR agonists (Higuchi and Hayaishi Arch Biochem Biophys 1967, Nguyen and Bradfield 2008, Zelante et al. 2014). […] To specifically identify these tryptophan derived products, IECs were cultured with deuterated L-trp (D5-Trp) and performed high performance liquid chromatography mass spectrometry (LC-MS) on lysates stimulated with oxazolone, TMO, frag-oz or TMC control (FIG. 5C). […] Taken together these latter studies are consistent with a model in which exposure of IECs to oxazole containing compounds leads to the activation of IDO1 and generation of tryptophan-derived metabolites that induce the AhR pathway to downregulate CD1d-restricted responses associated with the production of IL-10 (FIG. 6).

DNA gyrase = DNA gyrase (Escherichia coli, UniProt P0AES4+P0AES6); details: in vitro; literature (Collin et al. 2013; Yorgey et al. 1994, Li et al. 1996); cited from earlier work
Chain of DNA gyrase (P0AES4 whole entry, one chain of several): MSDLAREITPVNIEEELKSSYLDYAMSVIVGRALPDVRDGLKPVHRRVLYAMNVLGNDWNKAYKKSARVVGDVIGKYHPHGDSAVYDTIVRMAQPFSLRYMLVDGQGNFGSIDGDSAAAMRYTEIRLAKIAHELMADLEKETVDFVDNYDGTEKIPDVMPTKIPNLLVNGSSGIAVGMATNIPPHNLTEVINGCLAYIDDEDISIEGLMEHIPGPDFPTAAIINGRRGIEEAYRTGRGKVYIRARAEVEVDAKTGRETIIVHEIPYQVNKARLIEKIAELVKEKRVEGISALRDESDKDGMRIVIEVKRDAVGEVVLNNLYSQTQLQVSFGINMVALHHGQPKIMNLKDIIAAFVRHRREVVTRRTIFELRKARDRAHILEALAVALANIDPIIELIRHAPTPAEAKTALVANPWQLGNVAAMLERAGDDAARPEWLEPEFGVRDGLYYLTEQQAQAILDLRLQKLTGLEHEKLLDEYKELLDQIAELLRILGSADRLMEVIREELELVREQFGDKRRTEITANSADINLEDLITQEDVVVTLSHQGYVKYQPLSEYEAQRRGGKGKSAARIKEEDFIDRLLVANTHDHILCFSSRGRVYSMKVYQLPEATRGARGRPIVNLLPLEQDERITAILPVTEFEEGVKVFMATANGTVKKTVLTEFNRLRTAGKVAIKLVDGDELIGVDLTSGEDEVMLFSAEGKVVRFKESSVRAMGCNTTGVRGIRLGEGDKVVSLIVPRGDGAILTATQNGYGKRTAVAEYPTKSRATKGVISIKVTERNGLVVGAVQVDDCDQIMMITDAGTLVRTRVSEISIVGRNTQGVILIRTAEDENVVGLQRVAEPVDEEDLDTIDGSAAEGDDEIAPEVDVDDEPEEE

primary hepatocytes = test: IL-10 production from primary hepatocytes co-cultured with 24.7 iNKT hybridoma; details: response to iNKT cells in the presence of α-GC
[4] = AhrΔIEC relative to Ahrfl/fl mice, intra-rectal challenge
[5] = IEC enriched colonic fractions after intra-rectal administration
[6] = intra-rectal administration, wildtype

For CC(=O)NCc1nc(C(N)=O)co1 [frag-oz], the Cyp1a1 transcripts (MODE-K cells [1]) was “induced expression of these genes in vitro and in vivo”, the Ido1 transcripts (MODE-K cells [1]; MODE-K cells conditioned with compound, normalized to β-actin) was “induced expression of these genes in vitro and in vivo” and the “compound induced inhibition of CD1d-restricted IL-10 production when AhR expression is silenced” value (MODE-K cells [2]; AhR siRNA, IEC:iNKT cell co-cultures) was “reversed”. For the same compound, the “CD1d-restricted IL-10 production” value (MODE-K cells [2]; IECs cultured in tryptophan-deficient media) was “no longer attenuated”, the IL-10 production (MODE-K cells [2]; tryptophan-deficient conditions supplemented with kyneurenic acid) was “decreased IL-10 production” and the “decrease of IL-10 production when AhR was silenced” value (MODE-K cells [2]; tryptophan-deficient conditions supplemented with kyneurenic acid, AhR siRNA) was “reduced when AhR was silenced”. For the same compound, the “CD1d-restricted IL-10 production” value (MODE-K cells [2]; tryptophan-deficient media supplemented with exogenous L-tryptophan) was “attenuation of CD1d-restricted IL-10 production”, the “compound induced reduction of cell surface CD1d lipid antigen loading when AhR expression is silenced” value (MODE-K cells [3]) was “reversed” and the “IL-10 production in colonic explants” value (C57Bl/6 mice; AhrΔIEC compared to wildtype controls, after intra-rectal challenge) was “elevated IL-10 production”. The “host protection, disease manifestations” value (C57Bl/6 mice; [4]) was “conferred host protection”, the weight loss (C57Bl/6 mice; [4]) was “diminished weight loss” and the “Cyp1a1 transcripts in IEC in vivo” value (C57Bl/6 mice; [5]) was “induction of Cyp1a1”. The “Mttp transcripts in IEC in vivo” value (C57Bl/6 mice; [5]) was “Decreased Mttp levels”, the “inflammation in animals under GF conditions” value (C57Bl/6 mice; germ free animals) was “induce inflammation” and the “weight loss in GF animals compared to SPF animals” value (C57Bl/6 mice; germ free vs SPF, intra-rectal challenge) was “increased weight loss”. For the same compound, the “histopathology in GF animals” value (C57Bl/6 mice; germ free, intra-rectal challenge) was “severe histopathology”, the “Th1 and Th2 cytokines (IL-13, IFN-γ) from colon explants” value (C57Bl/6 mice; [6]) was “induction of both Th1 and 2 cytokines” and the “histological pathology of the colon” value (C57Bl/6 mice; [6]) was “CD1d-dependent pathology was observed”. For the same compound, the “ability of IDO1 to convert tryptophan to formyl-kyneurenine” value (recombinant IDO1) was “enhanced”, the IDO1 enzymatic activity (human IDO1(hIDO1)) was “IDO1 activators” and the “metabolite that D5-Trp was further metabolized to upon stimulation” value (IECs) was “xanthurenic acid”. The anti-gyrase activity (DNA gyrase) was “no anti-gyrase activity” and the “compound induced inhibition of IL-10 production in hepatocytes from Ahr−/− mice” value (primary hepatocytes) was “resistance”.
